From patent publication US20080305049A1, “Mri Contrast Agents for Diagnosis and Prognosis of Tumors” (priority 2005, published 2008)
“Also recorded” adds a separate entry of the source.

Columns and labels:
[1] = target: T1, human recombinant ER (ERα) (Homo sapiens, UniProt P03372); assay: competitive radiometric binding assay with tritiated estradiol; conditions: for IC50 / Ki: human recombinant ER; for IC50: read-out: IC50, concentration of competing ligand required to replace half of the ER bound tritiated estradiol; for Ki: read-out: Ki, calculated equilibrium concentration of competing ligand that binds half of the ER binding sites
T1 sequence (P03372 1-595): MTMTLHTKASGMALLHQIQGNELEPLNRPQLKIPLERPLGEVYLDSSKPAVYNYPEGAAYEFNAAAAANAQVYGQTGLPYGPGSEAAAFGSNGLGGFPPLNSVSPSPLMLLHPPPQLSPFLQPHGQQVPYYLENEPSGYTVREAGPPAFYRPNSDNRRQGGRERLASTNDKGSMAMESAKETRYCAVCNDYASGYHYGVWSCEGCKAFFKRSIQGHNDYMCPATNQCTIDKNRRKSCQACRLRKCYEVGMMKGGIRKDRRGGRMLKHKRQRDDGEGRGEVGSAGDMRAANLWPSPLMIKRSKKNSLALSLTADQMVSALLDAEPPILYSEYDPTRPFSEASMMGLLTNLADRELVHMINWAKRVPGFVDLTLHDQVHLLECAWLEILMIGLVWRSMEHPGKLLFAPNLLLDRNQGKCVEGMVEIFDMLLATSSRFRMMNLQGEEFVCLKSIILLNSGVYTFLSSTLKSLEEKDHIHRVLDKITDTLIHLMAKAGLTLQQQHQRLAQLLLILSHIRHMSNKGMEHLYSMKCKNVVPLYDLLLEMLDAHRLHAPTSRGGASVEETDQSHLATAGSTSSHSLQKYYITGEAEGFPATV
Protocol: This procedure yields IC50 displacement values for the inhibition of the binding of tritiated estradiol to the ER. Low IC50 values correlates to high binding affinities.
The binding affinities were determined by performing a competitive radiometric-binding assay using tritiated estradiol and human recombinant ER. […] Table 1 presents the concentration of the competing ligand required to replace half of the ER bound tritiated estradiol, IC50, and the calculated equilibrium concentration of the competing ligand that will bind to half of the ER binding sites, Ki.

[2] = tested on: MCF7, T47D and ZR-75-1 ER+ human breast cancer cells; assay: proliferation of ER+ human breast cancer cells (MTT method); format: cell-based; conditions: for agonistic or antagonistic effect on proliferation: 2 μM
Protocol: The agonistic or antagonistic effects of the conjugates and metal complexes thereof were studied by their capacity to enhance or arrest cell growth, respectively.
The vehicle (water) was added as control and served to normalize the changes in cell number.

[3] = target: T2, estrogen receptor (ER)-α in MCF7 cells (Homo sapiens, UniProt P03372); assay: Western blot of ER-α level relative to tubulin; format: cell-based; conditions: 6 hours after treatment
T2 construct: endogenous in cells; host or cells: MCF7 human breast cancer cells
T2 sequence (P03372 1-595): T1 sequence (P03372 1-595)
Source text: FIG. 10B is a graph showing the quantitative analysis of the blots in terms of ER expression relative to tubulin expression under the various treatments as indicated in the figure.
We then carried out a Western blot for determining the level of the estrogen receptor protein using an anti-ER antibody to identify ER in the blot. […] FIG. 10A depicts the Western blot and FIG. 10B depicts quantitation of the blot: the amount of ER relative to tubulin, assuming tubulin is constant under all treatment manipulations.

[4] = tested on: MDA-MB-231 cells; assay: proliferation of ER− human breast cancer cells (MTT method)
Protocol: The number of cells was determined spectrophotometrically using the MTT [3-(4,5-dimethylthiazol-2-yl)-2,5-diphenyltetrazolium bromide] method. The samples are read using an ELISA plate reader at a wavelength of 570 nm. The amount of color produced is directly proportional to the number of viable cells.

[5] = toxicology after intravenous injection; format: in vivo, CD1-NU mice
Source text: (§1) Animals: CD1-NU immunodeficient female mice (6-10 weeks old, 20-25 g weight) were provided by the Animal Unit of the Weizmann Institute of Science. During the MRI experiments, the animals were anesthetized by inhalation of 1% Isoflurane in an O2:N2O (3:7) mixture, applied through a nose cone. All animals were handled according to the regulations formulated by the Institutional Animal Care and Use Committee (IACUC) of the Weizmann Institute of Science (Rehovot, Israel).
Toxicology: The probes (e.g. Gd complex 7) were injected into the tail vein of CD1-NU mice at a varying dose in the range of 0.024 to 1.0 mmol/kg weight.

[6] = T1 and T2 relaxivity of water at 4.7 Tesla; format: physicochemical
Protocol: The T1 and T2 relaxivity of the MRI probes, i.e., the Gd complexes of the invention, were measured in saline solutions using standard protocols (i.e inversion recovery for T1 relaxivity and Carr-Purcell-Meiboom-Gill (CPMG) for T2 relaxivity).
The capacity of the Gd complex 7 to serve as a relaxation contrast agent was determined by measuring its relaxivity. […] For the T1 relaxivity measurement, a spin echo sequence was employed with a varying repetition time-TR (11 TRs, from 50 to 15,000 msec) and a fixed echo time of 23 msec.
The T1 relaxivity was determined from the slope.
We determined the MRI properties of the novel paramagnetic ER ligands. T1 and T2 relaxation rates of the water protons were measured as a function of the concentration of the Gd complex 7.

[7] = tested on: rat uterus; assay: MRI of the uterus of ovariectomized rats; format: in vivo; conditions: 0.024 mmol/kg
Protocol: We developed and applied in vivo tests of the Gd complex 7 in the classical target organ of estrogen (the rat uterus). […] In order to be able to delineate the uterus, we applied a newly developed segmentation algorithm that enables us to automatically monitor changes in the entire uterine volume and in the changing nuclear relaxation rates due to interaction with 7. […] The endometrium volume increased by 45%, over the entire monitoring period of 5.5 hours, indicating response to the Gd complex 7, as shown in FIGS. 11A-11E.
FIG. 11A depicts the T2-weighted images prior to administration and FIG. 11B depicts the T2-weighted images after 5 hours of administration of compound 7 (the endometrium is circled in green) with the corresponding 3D automatically delineated right horn (FIGS. 11C and 11D) and the corresponding changes in the volume during the entire time course (FIG. 11E).

[8] = tested on: orthotopic ER+ MCF7 breast tumor; assay: in vivo MRI monitoring of distribution and binding in mice with orthotopic MCF7 breast tumor; parameters: species or system CD1-NU immunodeficient female mice
Source text: as §1
(§2) Tumors: ER^+ human breast cancer MCF-7 cells were implanted orthotopically into the mammary gland of the CD1-NU immunodeficient female mice, as previously described (Paran et al., 2004). The mice were ovariectomized to eliminate any […] estrogen. Initially a pellet of 17β-estradiol (Innovative Research, Florida) was implanted before the cells were injected, to ensure growth of the tumors. Within 3 weeks, tumors developed to a size of about ˜0.5 ml and consisted of highly proliferating cells. At this stage we removed the estrogen pellet and after a week administered the MRI probe. The extent of accumulation in the tumors was studied in vivo and in excised tumors and was then compared to results obtained by the standard immunostaining technique.
(§3) MRI: The accumulation of the MRI probe was tested by scanning the tumors before the injection of the probe and at times after the injection, using T1 weighted and T2 weighted pulse sequences. MR images were recorded with a 4.7 Tesla scanner (Bruker; Biospec 4.7 T/30 cm bore, dedicated Doty resonator, 3 cm diameter, 200 MHz for protons). The MRI parameters for scanning T2-weighted images were: 2D Spin echo with: TE/TR=69 msec/4000 msec, field of view (FOV) 5 cm, slice thickness 1.2 mm and 128×256 matrix. For T1 measurements two pulse sequences were employed: 1. Inversion recovery pulse sequence with varying T1 (n=20) ranging from 10 to 10000 msec, TE/TR=3.15 msec/15 msec, flip angle 10 degrees; 2. Fast gradient echo sequence. The spatial resolution was as in the T2 weighted image except the matrix was 128×128.
(§4) Distribution of the MR probes: The distribution of the Gd complex 7 in the blood, inner organs and the tumors was monitored over a period of 24 h after a bolus injection of 7 into the tail vein at a dose ranging from 0.024 to 0.4 mmol/kg.
(§5) The contrast agent distribution was monitored, alternating between two pulse sequences: 1. T1-weighted, 3D gradient echo with TE/TR of 4.3/18.3 ms; a 30° flip angle, 2. 2D inversion or saturation recovery sequence with varying T1 (n=20) ranging from 10 to 10000 msec, and gradient echo acquisition with TE/TR of 3.5/15 msec and 100 flip angel. The latter sequence enabled us to map the T1 relaxation time. The spatial resolution was the same for both sequences and during the whole experiment time, namely, 0.2×0.4×1.2 mm^3. Susceptibility gradient echo and T2 weighted spin echo protocols were employed to generate the MR images of the animal.
(§6) Several protocols of administration of the Gd complex 7 were examined: a high and low dose bolus injection of 0.4 mmol/kg and 0.024 mmol/kg, respectively (FIGS. 7 and 8), and a slow infusion (drip) protocol over 60 min of the high dose.
(§7) To determine the ER-binding of 7 administered at low concentration (0.024 mmol/kg), we performed measurements up to 24 after its administration, when all the tissues appeared to be cleared from the probe. FIGS. 7A-7B show the time course of the T1 relaxation in the bladder, orthotopic MCF7 breast tumor and muscle of a female CD1-NU immunodeficient mouse after a bolus administration of a low dose of 7 (0.024 mmol/kg) (7B) and the area of each organ as marked on the upper T2-weighted image (FIG. 7A). The images at 0, 0.5 and 2.5 h were recorded with the anaesthetized mouse in the same position. After the 2.5 h measurement, the mouse was returned to its cage and was again scanned under anesthesia at the 7 and 24 hours time points. […] The central slice of each organ is presented. […]

[9] = as above; parameters: species or system CD1-NU immunodeficient female mice; conditions: female, CD1-NU, mouse, tumor (orthotopic MCF7 breast tumor), intravenous; 24 hours after bolus 0.024 mmol/kg, calculated from relaxation rates; read-out: apparent concentration in the tumor
Source text: as §1, §2, §3, §4, §5, §6, §7

[10] = bolus 0.4 mmol/kg, about 5 hours

## CC/C(=C(\c1ccc(C#Cc2cc(CN(CC(=O)O)CC(=O)O)nc(CN(CC(=O)O)CC(=O)O)c2)cc1)c1ccc(OCCN(C)C)cc1)c1ccccc1 [Compound 16]
[1]
  IC50: 5300 nM
  Ki: 480 nM
[2]
  hormonal activity (summary statement): antagonist to estrogen
[2]; MCF7, T47D
  agonistic or antagonistic effect on proliferation: did not elicit an estrogenic effect
[3]
  effect on ER-α level: acted like tamoxifen; also recorded: do not affect ER level

## C[C@]12CC[C@@H]3c4ccc(O)cc4C[C@@H](CCCCCCCCC[S+]([O-])CCCC(F)(F)C(F)(F)F)[C@H]3[C@@H]1CC[C@@H]2O (stereo partly shown) [ICI-182780, reference compound]
[3]
  effect on ER-α level: down regulation

## C[C@]12CCC3c4ccc(O)cc4CCC3C1CC[C@@]2(O)C#Cc1cc(CN(CC(=O)O)CC(=O)O)nc(CN(CC(=O)O)CC(=O)O)c1 (stereo partly shown) [Compound 6]
[4]
  sensitivity of proliferation of ER− cells: neither sensitive
[1]
  IC50: 4400 nM
  Ki: 400 nM
[2]; ER+ human breast cancer cells
  dose at which induction of proliferation occurred: nanomolar
[2]; MCF7, T47D, ZR-75-1, 30 nM or 1 μM
  stimulation of cell growth: stimulated the growth of the cells in a similar manner to that of estrogen
[2]; MCF7, T47D
  agonistic or antagonistic effect on proliferation: agonistic
[2]; high concentrations
  toxicity to cells: toxic at high concentrations
[3]
  effect on ER-α level: induced partial degradation of the receptor; also recorded: induce ER reduction

## CC12CCC3c4ccc(O)cc4CCC3C1CCC2(O)C#Cc1cc(CN(CC(=O)O)CC(=O)O)nc(CN(CC(=O)O)CC(=O)O)c1 (stereo not shown) [Compound 7]
[4]
  sensitivity of proliferation of ER− cells: neither sensitive
[5]; mice and rats
  toxicity (summary statement): non toxic in mice and rats
[5]; repetitive administration 3-7 days apart
  tolerability of repetitive administration: appeared to be harmless
[5]; up to 0.4 mmol/kg, intravenous, CD1-NU mice
  lethality and adverse effects: not lethal and does not cause obvious adverse effects; also recorded: non-toxic
[6]
  T1 relaxivity: 7.99 ± 0.05 mM⁻¹ s⁻¹
  T2 relaxivity: 30.8 ± 1.0 mM⁻¹ s⁻¹
[1]
  binding affinity to ER (in words): strong binding affinity to ER, comparable to that of tamoxifen
[3]
  effect on ER-α level: induced partial degradation of the receptor; also recorded: induce ER reduction
[7]
  effect in the uterus: agonistic effect in the uterus
[7]; over 5.5 hours
  increase of endometrium volume: 45%
[8]; 2 h after 1 hour slow infusion of 0.4 mmol/kg
  final concentration in tumor versus muscle: similar
[8]; 24 hours after 0.024 mmol/kg
  muscle T1 relaxation rate (R1): returned to that measured before
  tumor T1 relaxation rate (R1) increase: small but persistent
[8]; 24 hours after bolus 0.024 mmol/kg
  residual amount in the muscle: no residual amount
[8]; bolus 0.4 mmol/kg
  clearance through the kidneys into the urine compared with GdDTPA: several folds slower
  time of full clearance after administration: 24 h
[8]; [10]
  MRI signal enhancement in the muscle: declined close to pre-contrast administration
  MRI signal enhancement in the tumor: persisted throughout the experimental time
[9]
  concentration at 24 h: 2500 nM

## C[C@]12CC[C@@H]3c4ccc(O)cc4CC[C@H]3[C@@H]1CC[C@@H]2O [17β-estradiol, reference compound]
[4]
  sensitivity of proliferation of ER− cells: neither sensitive
